Results from ChEMBL document CHEMBL3751717, “Benzylamide antagonists of protease activated receptor 2 with anti-inflammatory activity” (Bioorg Med Chem Lett, 2016).
Calls of active or inactive are those of the source. The calls are words filed in the database; no cut-off is given here.

Experiments:
[1] = biological target: Proteinase-activated receptor 2 (Homo sapiens) (UniProt P55085); assay: Agonist activity at PAR2 in human HT-29 cells assessed as induction of ca2+ release at 10 uM after 1 hr by FLIPR assay relative to 2f-LIGRLO-NH2; assay type: cell-based
[2] = biological target: Proteinase-activated receptor 2 (Homo sapiens) (UniProt P55085); assay: Antagonist activity at PAR2 in human HT-29 cells assessed as inhibition of 2f-LIGRLO-NH2-induced ca2+ release at 1 uM preincubated for 15 mins measured after 1 hr by FLIPR assay; assay type: cell-based
Rattus norvegicus [3] = assay: Antiinflammatory activity in Wistar rat assessed as inhibition of 2f-LIGRLO-NH2-induced paw edema at 5 mg/kg, sc dosed 120 mins before 2f-LIGRLO-NH2 stimulation; assay type: functional, organism-based
[4] = AUC (0 to 6 hrs) in Wistar rat at 10 mg/kg, po; assay type: ADME, organism-based; design: time < 6 hr, dose 10 mg/kg, route oral; conditions: in vivo
Rattus norvegicus [5] = assay: Antiinflammatory activity in Wistar rat assessed as inhibition of 2f-LIGRLO-NH2-induced paw edema at 10 mg/kg, po dosed 120 mins before 2f-LIGRLO-NH2 stimulation; assay type: functional, organism-based
[6] = biological target: T1, Proteinase-activated receptor 1 (Homo sapiens) (UniProt P25116); assay: Antagonist activity at PAR1 in human PC3 cells assessed as inhibition of TFLLR-induced ca2+ release at 100 uM preincubated for 15 mins measured after 1 hr by FLIPR assay; assay type: cell-based; conditions: PC-3
T1 sequence (whole entry): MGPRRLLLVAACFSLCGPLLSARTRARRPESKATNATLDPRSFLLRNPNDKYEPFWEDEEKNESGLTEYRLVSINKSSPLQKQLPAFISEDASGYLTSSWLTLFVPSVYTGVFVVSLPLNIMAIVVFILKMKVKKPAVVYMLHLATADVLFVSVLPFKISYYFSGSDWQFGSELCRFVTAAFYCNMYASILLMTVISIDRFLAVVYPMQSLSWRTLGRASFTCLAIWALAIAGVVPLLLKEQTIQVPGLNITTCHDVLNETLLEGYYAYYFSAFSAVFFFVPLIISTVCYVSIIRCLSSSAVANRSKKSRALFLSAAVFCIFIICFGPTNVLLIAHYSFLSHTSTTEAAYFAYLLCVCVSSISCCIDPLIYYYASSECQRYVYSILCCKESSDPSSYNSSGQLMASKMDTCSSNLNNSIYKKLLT

[7] = biological target: T2, Proteinase-activated receptor 2 (Homo sapiens, UniProt P55085); assay: Antagonist activity at PAR2 in human HT-29 cells assessed as inhibition of trypsin-induced ca2+ release preincubated for 15 mins measured after 1 hr by FLIPR assay; assay type: cell-based
T2 sequence (P55085 whole entry): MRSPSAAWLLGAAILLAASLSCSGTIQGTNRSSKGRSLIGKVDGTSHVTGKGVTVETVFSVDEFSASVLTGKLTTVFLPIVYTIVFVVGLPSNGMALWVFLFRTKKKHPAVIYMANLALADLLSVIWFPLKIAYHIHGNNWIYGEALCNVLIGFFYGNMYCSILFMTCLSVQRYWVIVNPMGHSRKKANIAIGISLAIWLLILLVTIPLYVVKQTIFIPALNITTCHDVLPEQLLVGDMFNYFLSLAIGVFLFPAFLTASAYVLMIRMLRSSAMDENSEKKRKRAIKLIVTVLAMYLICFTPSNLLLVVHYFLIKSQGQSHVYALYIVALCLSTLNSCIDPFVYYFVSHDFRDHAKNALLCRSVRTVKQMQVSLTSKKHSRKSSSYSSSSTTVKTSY

[8] = biological target: T2, Proteinase-activated receptor 2; assay: Antagonist activity at PAR2 in human HT-29 cells assessed as inhibition of 2f-LIGRLO-NH2-induced ca2+ release preincubated for 15 mins measured after 1 hr by FLIPR assay; assay type: cell-based
[9] = Cmax in Wistar rat at 10 mg/kg, po; assay type: ADME, organism-based; design: dose 10 mg/kg, route oral; conditions: in vivo
[10] = biological target: T1, Proteinase-activated receptor 1 (Homo sapiens); assay: Antagonist activity at PAR1 in human PC3 cells assessed as inhibition of alpha-thrombin-induced ca2+ release at 100 uM preincubated for 15 mins measured after 1 hr by FLIPR assay; assay type: cell-based; conditions: PC-3
[11] = Tmax in Wistar rat at 10 mg/kg, po; assay type: ADME, organism-based; conditions: in vivo
HTEC [12] = assay: Antiinflammatory activity in human HTEC cells assessed as inhibition of 2f-LIGRLO-NH2-induced TNFalpha production at 5 to 10 uM after 24 hrs by ELISA; assay type: functional, cell-based
[13] = biological target: T2, Proteinase-activated receptor 2; assay: Displacement of europium-labeled 2f-LIGRLO-NH2 from human PAR2 expressed in CHO cells after 1 to 2 hrs; assay type: cell-based
HTEC [14] = assay: Antiinflammatory activity in human HTEC cells assessed as inhibition of 2f-LIGRLO-NH2-induced IL-6 production at 5 to 10 uM after 24 hrs by ELISA; assay type: functional, cell-based

Structure (SMILES)	Activity [1] [%]	inhibition [2] [%]	also measured
CC[C@H](C)[C@H](NC(=O)[C@H](CC1CCCCC1)NC(=O)c1ccno1)C(=O)NCc1ccccc1Cl	43	85	
CCCOc1ccccc1CNC(=O)[C@@H](NC(=O)[C@H](CC1CCCCC1)NC(=O)c1ccno1)[C@@H](C)CC	1	34	
CC[C@H](C)[C@H](NC(=O)[C@H](CC1CCCCC1)NC(=O)c1ccno1)C(=O)N1CCC2(C=Cc3ccccc32)CC1	16	54	inhibition (Rattus norvegicus [3]): Active; AUC(0-t) at 6 h [4]: 3420 ng·h/mL; inhibition (Rattus norvegicus [5]): Active; inhibition [6]: inactive; IC50 ([7]; read-out: IC50): 9600 nM; IC50 ([8]; read-out: pIC50 (converted)): 1260 nM; Cmax [9]: 1970 nM; inhibition [10]: inactive; Tmax [11]: 2.78 h
CC[C@H](C)[C@H](NC(=O)[C@H](CC1CCCCC1)NC(=O)c1ccno1)C(=O)NCc1ccccc1C	29	74	
CC[C@H](C)[C@H](NC(=O)[C@H](CC1CCCCC1)NC(=O)c1ccno1)C(=O)NCc1ccc2c(c1)OCO2	33	84	
CC[C@H](C)[C@H](NC(=O)[C@H](CC1CCCCC1)NC(=O)c1ccno1)C(=O)N(CC(C)C)CC(C)C	1	0	
CC[C@H](C)[C@H](NC(=O)[C@H](CC1CCCCC1)NC(=O)c1ccno1)C(=O)N(C)Cc1ccccc1	7	7	
CC[C@H](C)[C@H](NC(=O)[C@H](CC1CCCCC1)NC(=O)c1ccno1)C(=O)NCc1cccc(F)c1	28	74	
CC[C@H](C)[C@H](NC(=O)[C@H](CC1CCCCC1)NC(=O)c1ccno1)C(=O)NCc1ccncc1	87		
CCC(C)Oc1ccccc1CNC(=O)[C@@H](NC(=O)[C@H](CC1CCCCC1)NC(=O)c1ccno1)[C@@H](C)CC (stereo partly specified)	6	53	IC50 ([8]; read-out: IC50): 1000 nM; IC50 ([8]; read-out: pIC50 (converted)): 1260 nM
CC[C@H](C)[C@H](NC(=O)[C@H](CC1CCCCC1)NC(=O)c1ccno1)C(=O)NCc1ccccc1[N+](=O)[O-]	45	94	
CC[C@H](C)[C@H](NC(=O)[C@H](CC1CCCCC1)NC(=O)c1ccno1)C(=O)NCc1ccccc1OC(C)C	38	67	
CC[C@H](C)[C@H](NC(=O)[C@H](CC1CCCCC1)NC(=O)c1ccno1)C(=O)NCc1cccc(OC(F)(F)F)c1	44	18	
CC[C@H](C)[C@H](NC(=O)[C@H](CC1CCCCC1)NC(=O)c1ccno1)C(=O)NCc1cccc(-c2ccccc2)c1	5	17	
CC[C@H](C)[C@H](NC(=O)[C@H](CC1CCCCC1)NC(=O)c1ccno1)C(=O)NCc1ccccc1OC	20	100	inhibition (Rattus norvegicus [3]): Active; AUC(0-t) at 6 h [4]: 444 ng·h/mL; inhibition (Rattus norvegicus [5]): inactive; inhibition [6]: inactive; IC50 ([7]; read-out: pIC50 (converted)): 2000 nM; IC50 ([8]; read-out: IC50): 500 nM; Cmax [9]: 510 nM; inhibition (HTEC [12]): Active; IC50 [13]: 4500 nM; inhibition (HTEC [14]): Active; inhibition [10]: inactive; Tmax [11]: 2.63 h
CC[C@H](C)[C@H](NC(=O)[C@H](CC1CCCCC1)NC(=O)c1ccno1)C(=O)NCc1ccccc1	23	76	
CC[C@H](C)[C@H](NC(=O)[C@H](CC1CCCCC1)NC(=O)c1ccno1)C(=O)NCc1ccc(F)cc1	28	82	

Structure (SMILES)	Activity [1] [%]	inhibition [2] [%]	also measured
CC[C@H](C)[C@H](NC(=O)[C@H](CC1CCCCC1)NC(=O)c1ccno1)C(=O)NCc1ccccn1	83		
CC[C@H](C)[C@H](NC(=O)[C@H](CC1CCCCC1)NC(=O)c1ccno1)C(=O)NCc1ccccc1C(F)(F)F	42	57	
CC[C@H](C)[C@H](NC(=O)[C@H](CC1CCCCC1)NC(=O)c1ccno1)C(=O)N(C)Cc1ccccc1OC	20	27	
CC[C@H](C)[C@H](NC(=O)[C@H](CC1CCCCC1)NC(=O)c1ccno1)C(=O)NCc1ccc(OC)cc1	51	95	
CCCCOc1ccccc1CNC(=O)[C@@H](NC(=O)[C@H](CC1CCCCC1)NC(=O)c1ccno1)[C@@H](C)CC	1	8	
CC[C@H](C)[C@H](NC(=O)[C@H](CC1CCCCC1)NC(=O)c1ccno1)C(=O)NCCc1ccc(OC)c(OC)c1	39	32	
CC[C@H](C)[C@H](NC(=O)[C@H](CC1CCCCC1)NC(=O)c1ccno1)C(=O)NNc1ccccc1	41	33	
CC[C@H](C)[C@H](NC(=O)[C@H](CC1CCCCC1)NC(=O)c1ccno1)C(=O)NCc1cccc2c1OCO2	46	90	
CCOc1ccccc1CNC(=O)[C@@H](NC(=O)[C@H](CC1CCCCC1)NC(=O)c1ccno1)[C@@H](C)CC	29	71	
CC[C@H](C)[C@H](NC(=O)[C@H](CC1CCCCC1)NC(=O)c1ccno1)C(=O)NCc1nc2ccccc2[nH]1	86		
CC[C@H](C)[C@H](NC(=O)[C@H](CC1CCCCC1)NC(=O)c1ccno1)C(=O)NCc1cccc(OC)c1	32	98	
CC[C@H](C)[C@H](NC(=O)[C@H](CC1CCCCC1)NC(=O)c1ccno1)C(=O)NCc1ccccc1F	40	93	
CC[C@H](C)[C@H](NC(=O)[C@H](CC1CCCCC1)NC(=O)c1ccno1)C(=O)NCc1cccc2ccccc12	2	12	
CC[C@H](C)[C@H](NC(=O)[C@H](CC1CCCCC1)NC(=O)c1ccno1)C(=O)NCc1ccccc1-c1ccccc1	1	0	
CC[C@H](C)[C@H](NC(=O)[C@H](CC1CCCCC1)NC(=O)c1ccno1)C(=O)NCc1ccc(-c2ccccc2)cc1	6	0	
CC[C@H](C)[C@H](NC(=O)[C@H](CC1CCCCC1)NC(=O)c1ccno1)C(=O)NC1C2CC3CC(C2)CC1C3 (stereo partly specified)	26	29	
